Where a name gives a salt, the structure may show the parent alone. Read-outs that look alike come from different tables or passages of the source.
Key:
[1] = tested on: mosquitoes and other biting insects; settings: ingested doses of up to 100 mg/day for several weeks; cited from earlier work
[2] = 100 mg/day consumed over a number of days; cited from earlier work
[3] = cited from earlier work
[4] = tested on: insects; settings: stated without test data
Description: Thiamin hydrochloride is soluble in water and glycerin and other polyhydric alcohols.

| Compound | insect repellency on the human skin [1] | adverse effects of ingestion [2] | solubility ([3]; in organic solvents) | solubility ([3]; in water and glycerin and other polyhydric alcohols) | insect repellant properties [4] |
| --- | --- | --- | --- | --- | --- |
| Cc1ncc(C[n+]2csc(CCO)c2C)c(N)n1 [thiamin, Thiamin] | will repel mosquitoes and other biting insects from the skin | can cause anaphylactic stock, allergic reactions and skin rashes | – | – | – |
| Cc1ncc(C[n+]2csc(CCO)c2C)c(N)n1 [Thiamin hydrochloride] | – | – | not readily soluble | soluble | have insect repellant properties |
| Thiamin mononitrate | – | – | – | – | have insect repellant properties |
